Results from publication PMC10535268, “Design, Synthesis, and Evaluation of Novel Indole Hybrid Chalcones and Their Antiproliferative and Antioxidant Activity” (Molecules, 2023).

Tests used:
[1] = system: MDA-MB-231; experiment: MTT antiproliferative assay, MDA-MB-231; type: cell-based, human; conditions: MDA-MB-231, 72 h incubation, mean ± SD of three independent experiments
[2] = system: HCT116; experiment: MTT antiproliferative assay, HCT116; type: cell-based, human; conditions: HCT116, 72 h incubation, mean ± SD of three independent experiments
[3] = system: Jurkat; experiment: MTT antiproliferative assay, Jurkat; type: cell-based, human; conditions: 72 h incubation, mean ± SD of three independent experiments
[4] = system: Hela; experiment: MTT antiproliferative assay, HeLa; type: cell-based, human; conditions: 72 h incubation, mean ± SD of three independent experiments
Protocol: Table 2 IC50 (μM) ± SD of tested compounds in different cell lines after 72 h incubation. | column: Cell Line, IC50 (µM) ± SD / Hela

[5] = system: MCF-7; experiment: MTT antiproliferative assay, MCF-7; type: cell-based, human; conditions: MCF-7, 72 h incubation, mean ± SD of three independent experiments
[6] = system: MCF-10A; experiment: MTT cytotoxicity assay, non-cancer MCF-10A; type: cell-based, human; conditions: 72 h incubation, mean ± SD of three independent experiments
[7] = system: Bj-5ta; experiment: MTT cytotoxicity assay, non-cancer Bj-5ta; type: cell-based, human; conditions: 72 h incubation, mean ± SD of three independent experiments
[8] = DPPH radical scavenging activity; conditions: sample 1 mM, 30 min, gallic acid equivalents, mean (±SD), triplicate
[9] = ABTS radical scavenging activity; conditions: sample 1 mM, 30 min, gallic acid equivalents, mean (±SD), triplicate
Description: (§1) Table 3 Antioxidant activity.

[10] = Ferric reducing antioxidant power (FRAP); conditions: sample 1 mM, 30 min, gallic acid equivalents, mean (±SD), triplicate
Description: as §1

[11] = system: breast cancer cells; conditions: flow cytometry, Western blot, fluorescence microscopy; cited from earlier work
[12] = set-up: method as in Lagu et al. 19; conditions: compared to standard drugs; ref Lagu et al. 19; cited from earlier work
[13] = system: normal human liver cell line (L02); set-up: method as in Lagu et al. 19; conditions: ref Lagu et al. 19; cited from earlier work

SMILES	IC50 ([1]; Homo sapiens) [µM]	IC50 ([2]; Homo sapiens, HCT-116, 72 h) [µM]	IC50 ([3]; Homo sapiens) [µM]	IC50 ([4]; Homo sapiens, HeLa, 72 h) [µM]	IC50 ([5]; Homo sapiens, MCF7, 72 h) [µM]	IC50 ([6]; Homo sapiens, MCF-10A, 72 h) [µM]	IC50 ([7]; Homo sapiens) [µM]	DPPH [8]	ABTS [9]	FRAP [10]	melting point [°C]	IC50 [2] [µM]	further results
COn1cc(/C=C/C(=O)c2ccc(O)cc2)c2ccccc21 [14c, (2E)-1-(4-hydroxyphenyl)-3-(1-methoxy-1H-indol-3-yl)prop-2-en-1-one]	82.2 ± 3.1	34.5 ± 0.7	7.3 ± 0.1	34.6 ± 0.3	52.7 ± 2.6	59 ± 0.2	76.4 ± 1.7	21.1 (±5.8) µmol GAE/mmol	75.9 (±5.3) µmol GAE/mmol	42.0 (±2.0) µmol GAE/mmol	182 to 184	–	–
N.N.[Cl][Pt][Cl] [Cisplatin, reference compound]	–	–	–	–	–	–	–	–	–	–	–	15.3 ± 1.6	IC50 [1]: 17.4 ± 0.2 µM; IC50 [3]: 6.3 ± 0.4 µM; IC50 [4]: 6.5 ± 0.5 µM; IC50 [5]: 24.6 ± 2.1 µM; IC50 [6]: 25.9 ± 2.1 µM; IC50 [7]: 37.9 ± 1.9 µM
Cn1cc(/C=C/C(=O)c2ccccc2O)c2ccccc21 [13b, (2E)-1-(2-hydroxyphenyl)-3-(1-methyl-1H-indol-3-yl)prop-2-en-1-one]	82 ± 3.2	34.7 ± 0.2	> 100	42.8 ± 2.5	29.7 ± 2.3	> 100	> 100	7.6 (±3.8) µmol GAE/mmol	116.8 (±5.8) µmol GAE/mmol	41.2 (±0.7) µmol GAE/mmol	205 to 207	–	–
COn1cc(/C=C/C(=O)c2ccc(C(F)(F)F)cc2)c2ccccc21 [12c, (2E)-3-(1-methoxy-1H-indol-3-yl)-1-(4-trifluoromethylphenyl) prop-2-en-1-one]	81.3 ± 1.2	55.3 ± 1.7	39.3 ± 1.2	98 ± 2.8	86 ± 3.5	38.4 ± 3.1	> 100	–	–	–	113 to 115	–	–
O=C(/C=C/c1c[nH]c2ccccc12)c1ccc(O)cc1 [14a, (2E)-1-(4-hydroxyphenyl)-3-(1H-indol-3-yl)prop-2-en-1-one]	66 ± 2.5	36.8 ± 0.5	33.9 ± 2.5	39.9 ± 2.6	42.2 ± 0.7	51.5 ± 1.7	61 ± 0.6	12.3 (±2.3) µmol GAE/mmol	194.8 (±21.4) µmol GAE/mmol	105.5 (±3.4) µmol GAE/mmol	218	–	–
COn1cc(C(=O)/C=C/c2ccc(O)c(O)c2)c2ccccc21 [18c, (2E)-3-(3,4-dihydroxyphenyl)-1-(1-methoxy-1H-indol-3-yl)prop-2-en-1-one]	> 100	18.5	8 ± 1.4	> 100	> 100	> 100	> 100	551.1 (±14.9) µmol GAE/mmol	298.1 (±21.0) µmol GAE/mmol	432.0 (±21.4) µmol GAE/mmol	206 to 209	18.2 ± 2.9	IC50 (µM) ± SD, MCF-10A [6]: no toxicity; IC50 (µM) ± SD, Bj-5ta [7]: no toxicity
CCCOc1[nH]c2ccccc2c1/C=C/C(=O)c1ccccc1F [11f, (2E)-1-(2″-Fluorophenyl)-3-(2′-propoxy-1′H-indol-3′-yl)prop-2-en-1-one]	–	–	–	–	–	–	–	227.3 (±11.0) µmol GAE/mmol	175.1 (±10.4) µmol GAE/mmol	183.5 (±0.9) µmol GAE/mmol	–	34.4 ± 1.1	IC50 [1]: 34 ± 3 µM; IC50 [3]: 37.7 ± 1.1 µM; IC50 [4]: 45.3 ± 0.7 µM; IC50 [5]: 37.3 ± 1.5 µM; IC50 [6]: > 100 µM; IC50 (µM) ± SD, MCF-10A [6]: minimal effect; mode of cell death [11]: induce cell cycle arrest in the G2/M phase and apoptosis
COn1cc(/C=C/C(=O)c2ccccc2O)c2ccccc21 [13c, (2E)-1-(2-hydroxyphenyl)-3-(1-methoxy-1H-indol-3-yl)prop-2-en-1-one]	> 100	54 ± 2.2	42 ± 1.8	73.9 ± 3.4	53.4 ± 2.5	> 100	> 100	30.3 (±15.4) µmol GAE/mmol	214.6 (±28.4) µmol GAE/mmol	43.4 (±1.8) µmol GAE/mmol	139 to 140	–	–
Cn1cc(/C=C/C(=O)c2ccc(C(F)(F)F)cc2)c2ccccc21 [12b, (2E)-3-(1-methyl-1H-indol-3-yl)-1-(4-trifluoromethylphenyl) prop-2-en-1-one]	> 100	12.3 ± 0.2	> 100	32.8 ± 0.4	20.5 ± 5.1	> 100	> 100	–	–	–	182 to 184	–	–
O=C(/C=C/c1c[nH]c2ccccc12)c1ccccc1O [13a, (2E)-1-(2-hydroxyphenyl)-3-(1H-indol-3-yl)prop-2-en-1-one]	92.7 ± 1.8	40.5 ± 3.1	25.9 ± 2.4	39.6 ± 3.5	44.7 ± 2.6	55.4 ± 3.6	81.5 ± 0.2	14.2 (±0.4) µmol GAE/mmol	292.4 (±12.4) µmol GAE/mmol	125.2 (±9.4) µmol GAE/mmol	179.5 to 181	–	–
COc1cc(/C=C/C(=O)c2c[nH]c3ccccc23)ccc1O [19a, (2E)-3-(4-hydroxy-3-methoxyphenyl)-1-(1H-indol-3-yl)prop-2-en-1-one]	45.3 ± 0.5	62.7 ± 2.9	34 ± 0.3	25.5 ± 1.6	43.1 ± 1.6	24.7 ± 2.8	66.6 ± 0.1	223.5 (±11.2) µmol GAE/mmol	564.7 (±74.5) µmol GAE/mmol	307.2 (±11.9) µmol GAE/mmol	200 to 203	35.3 ± 0.6	IC50 [4]: 41.4 ± 2.5 µM; IC50 [6]: 40.2 ± 1.2 µM
Cn1cc(/C=C/C(=O)c2ccc(O)cc2)c2ccccc21 [14b, (2E)-1-(4-hydroxyphenyl)-3-(1-methyl-1H-indol-3-yl)prop-2-en-1-one]	> 100	49.3 ± 1.3	> 100	93 ± 2.6	82.3 ± 1.8	54 ± 2.1	> 100	7.3 (±3.1) µmol GAE/mmol	84.6 (±2.7) µmol GAE/mmol	114.3 (±4.2) µmol GAE/mmol	244	–	–
O=C(/C=C/c1c[nH]c2ccccc12)c1ccc(C(F)(F)F)cc1 [12a, (2E)-3-(1H-indol-3-yl)-1-(4-trifluoromethylphenyl) prop-2-en-1-one]	> 100	59.1 ± 1.1	> 100	68.1 ± 3.3	43.4	> 100	> 100	–	–	–	195 to 197	–	IC50 [5]: 43.3 ± 0.6 µM; antimicrobial activity [12]: greatest antimicrobial activity; cytotoxicity on normal human liver cell line (L02) [13]: without showing cytotoxicity
